# Assay: Reference tests: oxaliplatin added into water without polymer or with non-associative polymer
# Assay type: physicochemical
# Conditions: oxaliplatin 10.5 g/L in water, pH 7, without polymer
# From the text: This test is a reference which consists of adding the oxaliplatin into water, without the associative water-soluble polymer.
# This test is a reference which consists of adding the oxaliplatin into water, […].
# Next, 1.9 g of a water-soluble polymer with 30% solids content, said polymer being made up 36.9% by weight of methacrylic acid and 63.1% by weight of ethyl acrylate.
smiles,measurement,value
O=C1[O][Pt]2([NH][C@@H]3CCCC[C@H]3[NH]2)[O]C1=O [oxaliplatin],Appearance of the result,powder suspended in the water

# — patent US20100278925A1, “FORMULATIONS OF ORGANO-PLATINIC COMPOUNDS IN THE PRESENCE OF ASSOCIATIVE POLYMERS, PRODUCTS THUS OBTAINED AND USES THEREOF” (Coatex S.A. S., priority 2007, published 2010)
